In patent publication US7897369B2, “Isoprenoid wax ester synthases, isoprenoid acyl CoA-synthetases, and uses thereof” (Regents of the University of Minnesota, priority 2007, dated 2011):

What was measured:
Assay type in all cases: biochemical, Marinobacter hydrocarbonoclasticus DSM 8798
WS1 = test: Coupled enzyme assay, WS substrate profile (TLC); parameters: key to WE formation (spot intensity of wax ester products on TLC), WS1, C10 / WE formation (spot intensity of wax ester products on TLC), WS1, C12 / WE formation (spot intensity of wax ester products on TLC), WS1, C14 / WE formation (spot intensity of wax ester products on TLC), WS1, C16 / WE formation (spot intensity of wax ester products on TLC), WS1, Phytol / WE formation (spot intensity of wax ester products on TLC), WS1, Farnesol: no activity (−); ranging from no activity (−) to most active (+++); ranging from no activity (−) to most active (+++); most active (+++); settings: 12 h at 37° C., each substrate 250 μM; for WE formation (spot intensity of wax ester products on TLC), WS1, Farnesol: alcohol farnesol; for WE formation (spot intensity of wax ester products on TLC), WS1, Phytol: alcohol phytol; for WE formation (spot intensity of wax ester products on TLC), WS1, C10: fatty alcohol C10; for WE formation (spot intensity of wax ester products on TLC), WS1, C12: fatty alcohol C12; for WE formation (spot intensity of wax ester products on TLC), WS1, C14: fatty alcohol C14; for WE formation (spot intensity of wax ester products on TLC), WS1, C16: fatty alcohol C16
Experimental: (§1) Stock solutions of various substrates were prepared in 50 mM Tris-HCl buffer (pH 8) containing 1% gum arabic, 12.5 μg bovine serum albumin ml^−1, 0.1% taurocholate, and either 100 mM fatty acid, isoprenoid acid, fatty alcohol, or isoprenoid alcohol. Stock solutions were sonicated to disperse the substrates. Substrate profiles of the three WS were tested using coupled enzyme in vitro reactions in which the CoA synthetases Acs1 and Acs2 are added to synthesize the CoA-activated fatty acid phytanic acid substrates from corresponding acid precursors for the WS reactions. Assays were carried out in 500-μl reactions containing in 50 mM Tris-HCl buffer (pH 8.0), 12.5 μl of each acid, and alcohol substrate stock solution (final concentrations of each substrate of 250 μM), 10 mM MgCl2, 10 mM CoASH, 10 mM ATP, 5 mM TCEP, 0.1 U of inorganic pyrophosphatase, 0.25 μg of Acs1 and Acs2 CoA synthetase, and 0.5 μg of WS to be tested. Assays were incubated at 37° C. overnight before thin-layer chromatography (TLC) analysis of the reaction products.
(§2) In vitro WS assay samples were extracted with 500 μl of chloroformmethanol (1:1 [vol/vol]), and extracts were analyzed by TLC with Whatman normal phase silica gel 60 plates and developed using hexane-diethyl ether-acetic acid (90:10:1 [vol/vol/vol]). TLC plates were stained with either iodine vapor or anisaldehyde solution as described earlier (Jork et al., 1990. Thin-layer chromatography reagents and detection methods, vol. 1a. Physical and chemical detection methods: fundamentals, reagents. VHC, Weinheim, Germany). Palmitoyl palmitate and triolein were used as WE and TAG reference compounds, respectively.

WS2 [1] = biological target: T1, WS2 (Marinobacter nauticus, UniProt A3RE51); test: Coupled enzyme assay, WS substrate profile (TLC); parameters: key to WE formation (spot intensity of wax ester products on TLC), WS2, C16 / WE formation (spot intensity of wax ester products on TLC), WS2, Phytol / WE formation (spot intensity of wax ester products on TLC), WS2, Farnesol / WE formation (spot intensity of wax ester products on TLC), WS2, C10 / WE formation (spot intensity of wax ester products on TLC), WS2, C12 / WE formation (spot intensity of wax ester products on TLC), WS2, C14: no activity (−); ranging from no activity (−) to most active (+++); ranging from no activity (−) to most active (+++); most active (+++); settings: 12 h at 37° C., each substrate 250 μM; for WE formation (spot intensity of wax ester products on TLC), WS2, Farnesol: alcohol farnesol; for WE formation (spot intensity of wax ester products on TLC), WS2, Phytol: alcohol phytol; for WE formation (spot intensity of wax ester products on TLC), WS2, C10: fatty alcohol C10; for WE formation (spot intensity of wax ester products on TLC), WS2, C12: fatty alcohol C12; for WE formation (spot intensity of wax ester products on TLC), WS2, C14: fatty alcohol C14; for WE formation (spot intensity of wax ester products on TLC), WS2, C16: fatty alcohol C16
Experimental: as §1, §2

WS2 [2] = biological target: T1, WS2; test: Kinetic WS assay, spectrophotometric (CoA release, DTNB); settings: both substrates 1 mM; for Fatty/isoprenoid alcohol specificity of WS2: palmitoyl-CoA as acyl donor; for Acyl-CoA specificity of WS2: hexadecanol as acyl acceptor
Experimental: Assay reactions were preincubated at 37° C. for 5 min before the reactions were started by the addition of enzyme. Heat-denatured enzyme (99° C. for 15 min) was used as a negative control.
Acyl-CoA and fatty/isoprenoid alcohol specificity of WS2 was determined in the same manner as described for the kinetic WS assay with assumed saturating conditions containing both the fatty/isoprenoid alcohol and acyl-CoA substrates at a concentration of 1 mM. Acyl-CoA specificity was measured with hexadecanol as acyl acceptor, whereas palmitoyl-CoA was used as acyl donor to determine alcohol specificity.
A spectrophotometric assay was developed to determine the kinetic properties of WS1 and WS2. […] The specific activities of WS1, WS2, and Acinetobacter WS/DGAT were measured with palmitoyl-CoA and hexadecanol, palmitoyl-CoA and phytol, and phytanoyl-CoA and phytol. Phytanoyl-CoA for these assays was enzymatically synthesized from phytanic acid and CoA using the above-characterized isoprenoid/acyl-CoA synthetase Acs2.

T1 sequence (A3RE51 entry or part of it): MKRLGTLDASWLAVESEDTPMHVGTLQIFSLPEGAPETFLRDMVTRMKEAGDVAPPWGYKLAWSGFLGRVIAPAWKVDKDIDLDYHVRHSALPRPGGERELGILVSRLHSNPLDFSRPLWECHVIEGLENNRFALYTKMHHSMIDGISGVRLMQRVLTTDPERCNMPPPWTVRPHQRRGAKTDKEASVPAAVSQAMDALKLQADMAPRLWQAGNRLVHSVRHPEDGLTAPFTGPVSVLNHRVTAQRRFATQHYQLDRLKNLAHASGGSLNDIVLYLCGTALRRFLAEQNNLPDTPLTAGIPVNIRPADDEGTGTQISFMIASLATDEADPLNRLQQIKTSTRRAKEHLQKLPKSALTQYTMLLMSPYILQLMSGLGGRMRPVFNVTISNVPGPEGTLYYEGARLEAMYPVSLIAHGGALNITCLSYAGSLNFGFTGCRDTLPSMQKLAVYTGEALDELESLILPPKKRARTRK

WE formation (spot intensity of wax ester products on TLC), WS1, Farnesol (WS1)	WE formation (spot intensity of wax ester products on TLC), WS1, Phytol (WS1)	WE formation (spot intensity of wax ester products on TLC), WS1, C10 (WS1)	WE formation (spot intensity of wax ester products on TLC), WS1, C12 (WS1)	WE formation (spot intensity of wax ester products on TLC), WS1, C14 (WS1)	WE formation (spot intensity of wax ester products on TLC), WS1, C16 (WS1)	WE formation (spot intensity of wax ester products on TLC), WS2, Farnesol (WS2 [1])	WE formation (spot intensity of wax ester products on TLC), WS2, Phytol (WS2 [1])	WE formation (spot intensity of wax ester products on TLC), WS2, C10 (WS2 [1])	WE formation (spot intensity of wax ester products on TLC), WS2, C12 (WS2 [1])	WE formation (spot intensity of wax ester products on TLC), WS2, C14 (WS2 [1])	WE formation (spot intensity of wax ester products on TLC), WS2, C16 (WS2 [1])	Acyl-CoA specificity of WS2 (WS2 [2])	SMILES	Fatty/isoprenoid alcohol specificity of WS2 (WS2 [2])
+++	−	+	+	−	+	+	+	+	+	−	+		CCCCCCCCCC(=O)O [C10]	
+++	−	−	+	+	+	++	+	+	+	+	+		CCCCCCCCCCCC(=O)O [C12]	
++	+	−	−	++	+	++	+	++	+	++	+		CCCCCCCCCCCCCC(=O)O [C14]	
++	+++	+	++	++	++	++	++	++	++	+++	+++		CCCCCC/C=C\CCCCCCCC(=O)O [C16Δcis9]	
++	++	++	+	++	+	++	+	+	+	+	+		CCCCCCCCCCCCCCCCCC(=O)O [C18]	
+	−	−	+	+	−	−	+	+	+	+	+		CC/C=C\C/C=C\C/C=C\CCCCCCCC(=O)O [C18Δcis9, 12, 15]	
++	++	+	+	+	+	+	+	−	−	+	+		CCCCCCCCCCCCCCCCCCCC(=O)O [C20]	
													CCCCCCCCCCO [Decanol]	more readily taken up for WE synthesis than the equivalent-chain-length acyl-CoA carbon chain
												readily accepted	CCCCCCCCCCCCCCCCCCCC(=O)SCCNC(=O)CCNC(=O)[C@H](O)C(C)(C)COP(=O)(O)OP(=O)(O)OC[C@H]1O[C@@H](n2cnc3c(N)ncnc32)[C@H](O)[C@@H]1OP(=O)(O)O [arachidoyl-CoA, arachidoyl-CoA (C20:0)]	
													CCCCCCCCCCCCO [dodecanol]	more readily taken up for WE synthesis than the equivalent-chain-length acyl-CoA carbon chain
												not accepted at all	CCCCCCCCCCCC(=O)SCCNC(=O)CCNC(=O)[C@H](O)C(C)(C)COP(=O)(O)OP(=O)(O)OC[C@H]1O[C@@H](n2cnc3c(N)ncnc32)[C@H](O)[C@@H]1OP(=O)(O)O [lauroyl-CoA, lauroyl-CoA (C12)]	
												readily accepted	CC/C=C\C/C=C\C/C=C\CCCCCCCC(=O)SCCNC(=O)CCNC(=O)[C@H](O)C(C)(C)COP(=O)(O)OP(=O)(O)OC[C@H]1O[C@@H](n2cnc3c(N)ncnc32)[C@H](O)[C@@H]1OP(=O)(O)O [linolenoyl-CoA, linolenoyl-CoA (C18:3)]	
												poorly converted	CCCCCCCCCCCCCC(=O)SCCNC(=O)CCNC(=O)[C@H](O)C(C)(C)COP(=O)(O)OP(=O)(O)OC[C@H]1O[C@@H](n2cnc3c(N)ncnc32)[C@H](O)[C@@H]1OP(=O)(O)O [myristoyl-CoA, myristoyl-CoA (C14:0)]	
												readily accepted	CCCCCCCCCCCCCCCCCC(=O)SCCNC(=O)CCNC(=O)[C@H](O)C(C)(C)COP(=O)(O)OP(=O)(O)OC[C@H]1O[C@@H](n2cnc3c(N)ncnc32)[C@H](O)[C@@H]1OP(=O)(O)O [stearoyl-CoA, stearoyl-CoA (C18:0)]	
